Patent publication US10442796B2, “2,3,5-substituted thiophene compound as protein kinase inhibitor” (KOREA INSTITUTE OF SCIENCE AND TECHNOLOGY, priority 2016, dated 2019)
Substitutions are numbered along the chain they refer to. Counter-ions that a name gives are not always drawn.

Legend:
Assay in all cases: Growth inhibitory activity against Ba/F3 cell line
Type in all cases: cell-based
FLT3-ITD Ba/F3 cells = target: T1, FLT3-ITD Ba/F3 cells (Homo sapiens, UniProt P36888, cells depend on it, form not given); conditions: Ba/F3 expressing FLT3-ITD; 72 hours; cell titer glo; read-out: IC50 (uM) FLT3-ITD
T1 sequence (P36888 1-993): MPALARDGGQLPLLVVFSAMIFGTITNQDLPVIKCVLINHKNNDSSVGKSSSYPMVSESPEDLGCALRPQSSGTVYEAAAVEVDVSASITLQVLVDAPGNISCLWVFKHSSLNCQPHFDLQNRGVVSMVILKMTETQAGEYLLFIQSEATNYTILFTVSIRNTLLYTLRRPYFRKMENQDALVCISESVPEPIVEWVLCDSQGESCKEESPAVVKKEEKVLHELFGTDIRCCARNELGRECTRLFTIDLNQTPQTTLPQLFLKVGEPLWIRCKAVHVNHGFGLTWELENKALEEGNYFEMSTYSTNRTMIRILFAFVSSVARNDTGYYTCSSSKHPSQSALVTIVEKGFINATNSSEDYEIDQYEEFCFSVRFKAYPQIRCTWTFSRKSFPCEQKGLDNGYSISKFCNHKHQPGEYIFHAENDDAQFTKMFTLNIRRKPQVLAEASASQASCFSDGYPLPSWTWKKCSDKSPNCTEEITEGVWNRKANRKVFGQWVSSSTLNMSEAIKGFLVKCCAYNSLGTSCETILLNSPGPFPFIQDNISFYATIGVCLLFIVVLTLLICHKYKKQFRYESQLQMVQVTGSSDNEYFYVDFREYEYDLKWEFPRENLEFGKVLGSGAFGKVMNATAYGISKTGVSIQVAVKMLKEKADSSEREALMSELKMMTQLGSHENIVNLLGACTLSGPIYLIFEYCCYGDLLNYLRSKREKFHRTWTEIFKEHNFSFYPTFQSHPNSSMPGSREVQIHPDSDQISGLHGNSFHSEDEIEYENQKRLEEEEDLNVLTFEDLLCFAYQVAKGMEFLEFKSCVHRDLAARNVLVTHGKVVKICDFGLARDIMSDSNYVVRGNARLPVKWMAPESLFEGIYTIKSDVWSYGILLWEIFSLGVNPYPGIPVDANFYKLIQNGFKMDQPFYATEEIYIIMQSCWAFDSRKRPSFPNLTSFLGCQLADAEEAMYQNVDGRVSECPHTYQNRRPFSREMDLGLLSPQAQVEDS
Summary of the method: (§1)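 Ba/F3 cells carrying FLT3 mutants grown in RPMI with 10% FBS, exposed 72 h to ten 3-fold dilutions of compound starting from 1 mM DMSO stock. Viability read by CellTiter-Glo luminescence; GI50 fitted from signal versus final concentration.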

[1] = target: T2, FLT3-ITD-F691L-D835Y Ba/F3 cells (Homo sapiens, UniProt P36888, F691L/D835Y, cells depend on it, form not given); conditions: Ba/F3 expressing FLT3-ITD-F691L-D835Y; 72 hours; cell titer glo; read-out: IC50 (uM) FLT3-ITD-F691L-D835Y
T2 sequence (P36888 1-993 F691L/D835Y): T1 sequence (P36888 1-993) with F691L, D835Y
Summary of the method: as §1

Parental Ba/F3 cells = conditions: BaF3; Parental Ba/F3 with mouse IL-3 1 ng/mL; 72 hours; cell titer glo
Method: A Ba/F3 cell line expressing an FLT3 mutation gene was cultured in a culture solution including 90% RPMI, 10% FBS, and an antibiotic (Welgene). 100 uL of the Ba/F3 cell line was put into each of 5,000 wells of a TC-treated 96 well plate (SPL), and then 1 uL of a test compound diluted in dimethylsulfoxide (diluted for each 3 paint from a concentration of 1 mM, total 10 concentrations) was each injected thereinto. Thereafter, the resulting cell lines were incubated in a cell culture incubator for 72 hours. 50 uL of a cell titer glo (Promega) solution was added thereto, the resulting mixture was stored at room temperature for 10 minutes, and then the light emission intensity was measured by using a reader (Envision, PerkinElmer). The light emission intensity was shown as a graph for each final concentration of the test compound, and the GI50 value was obtained by using a Prism 5.0 (GraphPad) software.
A parental Ba/F3 cell line having no FLT3 mutation gene was cultured by using a culture solution supplemented with mouse IL-3 (R&D Systems), such that a final concentration became 1 ng/mL in the culture solution including 90% RPMI, 10% FBS, and an antibiotic (Welgene). The activity was measured by a method which is the same as described above.

Compound	GI50 (FLT3-ITD Ba/F3 cells)	GI50 [1]	IC50 (Parental Ba/F3 cells)
CS(=O)(=O)N1CCC(n2cc(C#Cc3cc(NC(N)=O)c(C(=O)N[C@H]4CCCNC4)s3)cn2)CC1 [Example 23, (S)-5-((1-(1-(methylsulfonyl)piperidin-4-yl)-1H-pyrazol-4-yl)ethynyl)-N-(piperidin-3-yl)-3-ureidothiophene-2-carboxamide]	0.007 µM	0.02 µM	> 5 µM
Cc1ccc(C#Cc2cc(NC(N)=O)c(C(=O)N[C@H]3CCCNC3)s2)cc1 [Example 24, (S)—N-(piperidin-3-yl)-5-(p-tolylethynyl)-3-ureidothiophene-2-carboxamide]	0.005 µM	0.002 µM	1.29 µM
Cn1cc(C#Cc2cc(NC(N)=O)c(C(=O)NC3CCNC3)s2)cn1 (stereo not drawn) [Example 39, 5-((1-methyl-1H-pyrazol-4-yl)ethynyl)-N-(pyrrolidin-3-yl)-3-ureidothiophene-2-carboxamide trifluoroacetate]	3.73 µM	1.24 µM	> 100 µM
NC(=O)Nc1cc(C#Cc2cccc(F)c2)sc1C(=O)NC1CCNC1 (stereo not drawn) [Example 40, 5-((3-fluorophenyl)ethynyl)-N-(pyrrolidin-3-yl)-3-ureidothiophene-2-carboxamide]	0.164 µM	0.079 µM	14.9 µM
Cn1cc(C#Cc2cc(NC(N)=O)c(C(=O)N[C@H]3CCCCNC3)s2)cn1 [Example 41, (S)—N-(azepan-3-yl)-5-((1-methyl-1H-pyrazol-4-yl)ethynyl)-3-ureidothiophene-2-carboxamide trifluoroacetate]	0.013 µM	0.007 µM	3.69 µM
NC(=O)Nc1cc(C#Cc2cn[nH]c2)sc1C(=O)N[C@H]1CCCCNC1 [Example 42, (S)-5-((1H-pyrazol-4-yl)ethynyl)-N-(azepan-3-yl)-3-ureidothiophene-2-carboxamide trifluoroacetate]	0.137 µM	0.116 µM	54.4 µM
CCn1cc(C#Cc2cc(NC(N)=O)c(C(=O)N[C@H]3CCCCNC3)s2)cn1 [Example 43, (S)—N-(azepan-3-yl)-5-((l-ethyl-1H-pyrazol-4-yl)ethynyl)-3-ureidothiophene-2-carboxamide trifluoroacetate]	0.01 µM	0.006 µM	4.1 µM
CC(C)n1cc(C#Cc2cc(NC(N)=O)c(C(=O)N[C@H]3CCCCNC3)s2)cn1 [Example 44, (S)—N-(azepan-3-yl)-5-((1-isopropyl-1H-pyrazol-4-yl)ethynyl)-3-ureidothiophene-2-carboxamide trifluoroacetate]	0.006 µM	0.004 µM	2.45 µM
COCCn1cc(C#Cc2cc(NC(N)=O)c(C(=O)N[C@H]3CCCCNC3)s2)cn1 [Example 45, (S)—N-(azepan-3-yl)-5-((1-(2-methoxyethyl)-1H-pyrazol-4-yl)ethynyl)-3-ureidothiophene-2-carboxamide trifluoroacetate]	0.038 µM	0.019 µM	16.8 µM
NC(=O)Nc1cc(C#Cc2cnn(C3CCOCC3)c2)sc1C(=O)N[C@H]1CCCCNC1 [Example 46, (S)—N-(azepan-3-yl)-5-((1-(tetrahydro-2H-pyran-4-yl)-1H-pyrazol-4-yl)ethynyl)-3-ureidothiophene-2-carboxamide trifluoroacetate]	0.003 µM	0.003 µM	0.3 µM
CS(=O)(=O)N1CCC(n2cc(C#Cc3cc(NC(N)=O)c(C(=O)N[C@H]4CCCCNC4)s3)cn2)CC1 [Example 47, (S)—N-(azepan-3-yl)-5-((1-(1-(methylsulfonyl)piperidin-4-yl)-1H-pyrazol-4-yl)ethynyl)-3-ureidothiophene-2-carboxamide trifluoroacetate]	0.027 µM	0.04 µM	> 5 µM
NC(=O)Nc1cc(C#Cc2ccsc2)sc1C(=O)N[C@H]1CCCCNC1 [Example 48, (S)—N-(azepan-3-yl)-5-(thiophen-3-ylethynyl)-3-ureidothiophene-2-carboxamide trifluoroacetate]	0.005 µM	0.004 µM	1.59 µM
CC(=O)N1CCC(n2cc(C#Cc3cc(NC(N)=O)c(C(=O)N[C@H]4CCCCNC4)s3)cn2)CC1 [Example 49]	0.017 µM	0.031 µM	> 5 µM
NC(=O)Nc1cc(C#Cc2cccc(F)c2)sc1C(=O)N[C@H]1CCCCNC1 [Example 50, (S)—N-(azepan-3-yl)-5-((3-fluorophenyl)ethynyl)-3-ureidothiophene-2-carboxamide]	0.023 µM	0.006 µM	7.8 µM
Cn1cc(CCc2cc(NC(N)=O)c(C(=O)N[C@H]3CCCCNC3)s2)cn1 [Example 52, (S)—N-(azepan-3-yl)-5-(2-(1-methyl-1H-pyrazol-4-yl)ethyl)-3-ureidothiophene-2-carboxamide trifluoroacetate]	6.28 µM	> 4 µM	> 100 µM
NC(=O)Nc1cc(CCc2cccc(F)c2)sc1C(=O)N[C@H]1CCCNC1 [Example 53]	0.359 µM	0.149 µM	44.5 µM
NC(=O)Nc1cc(CCc2cccc(F)c2)sc1C(=O)N[C@H]1CCCCNC1 [Example 54, (S)—N-(azepan-3-yl)-5-(3-fluorophenethyl)-3-ureidothiophene-2-carboxamide]	1.93 µM	1.02 µM	> 33 µM
